# According to PubChem BioAssay (NCI):
# Several values for one entry are separate records, joined by “and”; a condition that tells them apart may be missing. Equal values may be shown once.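 These data come from cells grown in 96-well plates and exposed to compound for 48 hours at five concentrations. Abbreviation: GI50, concentration required for 50% inhibition of growth. TGI: total growth inhibition.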
# Assays:
# Experiment in all cases: DTP human tumour cell line panel, 48 h
# HCT-15 colon = test system: HCT-15 colon
# DU-145 prostate = test system: DU-145 prostate
# UACC-257 melanoma = test system: UACC-257 melanoma
# K-562 leukemia = test system: K-562 leukemia
# HS 578T breast = test system: HS 578T breast
# MCF7 breast = test system: MCF7 breast
# SK-MEL-5 melanoma = test system: SK-MEL-5 melanoma
# NCI-H522 lung = test system: NCI-H522 lung
# EKVX NSCLC = test system: EKVX NSCLC
# HL-60(TB) leukemia = test system: HL-60(TB) leukemia
Compound,GI50 (HCT-15 colon),TGI (HCT-15 colon),GI50 (DU-145 prostate),TGI (DU-145 prostate),GI50 (UACC-257 melanoma),TGI (UACC-257 melanoma),GI50 (K-562 leukemia),TGI (K-562 leukemia),GI50 (HS 578T breast),TGI (HS 578T breast),GI50 (MCF7 breast),TGI (MCF7 breast),GI50 (SK-MEL-5 melanoma),TGI (SK-MEL-5 melanoma),GI50 (NCI-H522 lung),TGI (NCI-H522 lung),GI50 (EKVX NSCLC),TGI (EKVX NSCLC),GI50 (HL-60(TB) leukemia),TGI (HL-60(TB) leukemia)
NC(=NCCCOc1ccc(Cl)cc1)Nc1ccc(Cl)cc1,2.98 µM,9.29 µM,2.67 µM,7.73 µM,1.91 µM,3.84 µM,1.85 µM,4.32 µM,3.39 µM,14 µM,2.2 µM,7.35 µM,1.74 µM,3.16 µM,2.05 µM,4.8 µM,3.87 µM,13.3 µM,1.88 µM,4.58 µM
CC(C)C1OC(=O)C=C1Sc1ccccc1 (stereo unspecified),–,> 100 µM,–,> 100 µM,–,> 100 µM,–,> 100 µM,–,> 100 µM,–,> 100 µM,–,> 100 µM,–,> 100 µM,–,> 100 µM,–,> 100 µM
CCCCCC(O)C1C(=O)OC(C)C(O)/C=C/C=C/C=C/C=C\C=C(\C)C(O)CC(O)CC(O)CC(O)CC(O)CC(O)CC1O (stereo unspecified),> 100 µM,> 100 µM,> 100 µM,> 100 µM,> 100 µM,50 µM and > 100 µM,> 100 µM,> 100 µM,> 100 µM,> 100 µM,> 100 µM,> 100 µM,> 100 µM,> 100 µM,> 100 µM,> 100 µM,> 100 µM,> 100 µM,> 100 µM,> 100 µM
COc1ccc(Nn2c(SCC(=O)Nc3nc(-c4ccc(Cl)cc4)cs3)nc(C)c2C)cc1,4.79 µM,> 100 µM,4.06 µM,> 100 µM,2.97 µM,41.1 µM,1.58 µM,> 100 µM,11.8 µM,> 100 µM,3.36 µM,25.5 µM,1.41 µM,3.35 µM,5.05 µM,> 100 µM,1.92 µM,> 100 µM,2.24 µM,59.1 µM
Cc1cccc(Oc2nccc(-c3c(-c4ccc(F)cc4)ncn3C3CCNCC3)n2)c1C,8.12 µM,> 25 µM,> 11.4 µM,> 16.3 µM,–,–,5.68 µM,16 µM,8.9 µM,> 16.2 µM,6.68 µM,> 14.4 µM,3.61 µM,6.92 µM,9.84 µM,> 16.2 µM,> 14 µM,> 25 µM,9.38 µM,> 22.4 µM
C=C(C)[C@@H]1CC[C@]2(C)[C@H](C(=O)C=C3[C@@H]4C[C@](C)(C(=O)N5CCN(C)CC5)CC[C@]4(C)CC[C@]32C)[C@@]1(C)CCC#N,4.2 µM,10.9 µM,7.85 µM,15.3 µM,6.39 µM,13.9 µM,2.75 µM,9.55 µM,7.99 µM,20.9 µM,5.45 µM,12.5 µM,7.3 µM,13.9 µM,7.21 µM,15.3 µM,7.24 µM,14 µM,4.19 µM,11.8 µM
C/C(=N\NC(=O)c1ccncc1)c1ccc2ccccc2c1O,–,> 100 µM,–,38.2 µM,–,24.6 µM,–,> 100 µM,–,98.1 µM,–,14 µM,–,14.1 µM,–,12.4 µM,–,> 100 µM,–,10.3 µM
CC(=O)OC1CC(n2cc(F)c(=O)[nH]c2=O)OC1CO (stereo unspecified),–,> 100 µM,–,> 100 µM,–,> 100 µM,–,> 100 µM,–,> 100 µM,–,> 28.3 µM,–,16.2 µM,–,23.9 µM,–,> 100 µM,–,> 100 µM
COc1ccc(NC(=O)n2nc(N)c3ccccc32)cc1OC,44.1 µM,> 100 µM,73.1 µM,> 100 µM,73.6 µM,> 100 µM,41.2 µM,> 100 µM,43.3 µM,> 100 µM,29.5 µM,> 100 µM,27.9 µM,> 100 µM,34.9 µM,> 100 µM,54.1 µM,> 100 µM,27.9 µM,> 100 µM
C1CCN(CCC2CCCCN2)CC1 (stereo unspecified),–,> 100 µM,–,> 100 µM,–,> 100 µM,–,> 100 µM,–,> 100 µM,–,> 100 µM,–,> 100 µM,–,> 100 µM,–,> 100 µM,–,> 100 µM
CCOC(=O)c1sc2nc3sc(N=Nc4ccc(Cl)cc4)c(O)n3c(=S)c2c1C,18.3 µM,49.3 µM,31.2 µM,> 100 µM,23.4 µM,60.6 µM,> 100 µM,> 100 µM,23.8 µM,68.4 µM,21.4 µM,> 100 µM,17.1 µM,35.8 µM,38.8 µM,> 100 µM,5.43 µM,39.6 µM,> 100 µM,> 100 µM
CC(C)CCOc1ccc(-c2n[nH]c(C(F)(F)F)c2-c2cncc(C#N)c2)c(O)c1,2.4 µM,13.4 µM,4.18 µM,46.3 µM,1.69 µM,5.54 µM,1.87 µM,> 100 µM,2.91 µM,21.4 µM,2.23 µM,> 100 µM,0.943 µM,2.57 µM,1.8 µM,10 µM,2.28 µM,13.2 µM,1.98 µM,5.47 µM
CCn1c2c(n(CC)c1=S)-c1c(n(CC)c(=S)n1CC)SSSS2,–,11.8 µM,–,> 100 µM,–,22.6 µM,–,8.97 µM,–,91.1 µM,–,40.7 µM,–,43.1 µM,–,3.76 µM,–,21.4 µM,–,8.76 µM
CC(=O)c1ccc(NC(=O)CSc2nnc(-c3cc(-c4ccc(C)cc4)nc4ccccc34)o2)cc1,4.95 µM,> 100 µM,4.52 µM,> 100 µM,> 100 µM,> 100 µM,3.15 µM,> 100 µM,4.06 µM,39.4 µM,2.69 µM,> 100 µM,3.42 µM,> 100 µM,2.39 µM,9.06 µM,3.13 µM,> 100 µM,> 100 µM,> 100 µM
CN(C)c1ccc(/C=C(/NC(=O)c2ccccc2)c2nc3ccc(Cl)cc3[nH]2)cc1,–,> 73.1 µM,71.5 µM,> 100 µM,–,> 86.5 µM,–,> 73.8 µM,59.6 µM,> 100 µM,24.5 µM,> 100 µM,–,39.3 µM,–,> 74.1 µM,–,> 100 µM,–,66.9 µM
